Experimental data from patent US9198965B2 (priority 2008, dated 2015).
Where two headings read alike, the source gives them in different places.

Experiments:
[1] = tested on: PR/8 virus; experiment: Splenocyte IFN-γ ELISpot assay, PR/8 vaccine (Example 8); format: in vivo, Balb/C mice; details: day 15 post-vaccination; inactivated PR/8; EB 50 μM or 200 μM
[2] = tested on: H5N1 influenza virus; details: mouse, in vivo; cited from earlier work
[3] = tested on: influenza virus; details: cited from earlier work
[4] = tested on: RAW 264.7 macrophages; experiment: Association of FITC-labeled virus with macrophages by flow cytometry; format: cell-based; details: virus treated with 10 μM EB; compared to 0 μM
[5] = tested on: VN/1203; format: in vivo, Balb/C mice
[6] = tested on: VN/1203; format: in vivo, Balb/C mice; details: suboptimal dose vaccine
[7] = tested on: PR/8 virus; experiment: Sedimentation density profiles (density gradient ultracentrifugation) of peptide-treated virus; parameters: species or system A/PuertoRico/8/34 (PR/8, H1N1); details: EB peptide-treated samples (10 μM, 30 μM)
[8] = tested on: influenza viruses; details: in vitro; cited from earlier work
[9] = tested on: VN/1203 virus; experiment: Microneutralization assay of sera, suboptimal dose VN/1203 vaccine (Example 5); parameters: species or system Balb/C mice; details: mouse, in vivo
[10] = tested on: PR/8 virus; format: in vivo, Balb/C mice; details: suboptimal dose PR/8 vaccine
[11] = tested on: VN/1203 virus; format: in vivo, Balb/C mice; details: day 15 and 28 post-vaccination; inactivated VN/1203; EB 200 μM
[12] = tested on: VN/1203; experiment: Influenza-specific total IgG, IgG1, IgG2 ELISA after suboptimal dose VN/1203 vaccine (Example 5); parameters: species or system Balb/C mice; details: mouse, in vivo
[13] = tested on: VN/1203; experiment: Virus specific IgG ELISA after vaccination with inactivated VN/1203 (Example 3); format: in vivo, Balb/C mice; details: 28 days post-vaccination; EB at all concentrations (10 μM, 50 μM, 0.5 mM, 1 mM); i.m., boost day 15
[14] = tested on: PR/8 virus; experiment: Influenza-specific neutralizing antibodies in sera, suboptimal dose PR/8 vaccine (Example 6); format: in vivo, Balb/C mice; details: day 15 post-vaccination; pooled serum; values <40 negative

RRKKAAVALLPAVLLALLAP [EB]
IFN-γ levels (IFN-γ secreting splenocytes) [1]: increases
clinical signs of H5N1 influenza virus infection [2]: prevented clinical signs
survival [2]: increased survival
influenza virus attachment to cells [3]: inhibited
shift in macrophage association peak of FITC-PR/8 [4]: minimal shift
weight change compared to day 0 of challenge ([5]; […], EB 10 μM, 50 μM, 0.5 mM or 1 mM, alum 0.5 mg/ml): weight increase
infectious virus in lungs (TCID50 on MDCK cells) ([5]; […], VN/1203 pretreated with 50 μM or greater amounts of EB): no detectable infectious virus
infectious virus in lungs (TCID50 on MDCK cells) ([5]; day 10, any of the groups vaccinated with inactivated VN/1203 and EB): no detectable infectious virus
weight loss ([6]; 200 μM EB, no boost): little to no weight loss
weight loss ([6]; 200 μM EB, with boost): little to no weight loss
score for clinical signs of infection (0-3) ([6]; 200 μM EB, without boost): 1
survival rate ([6]; EB 50 μM): > 60%
score for clinical signs of infection (0-3) ([6]; peptide 200 μM, with boost): 0
HA activity as compared to virus alone [7]: considerably lower
concentrations at which EB inhibits virus replication [8]: ≥ 10 µM
virus neutralizing antibody titers (microneutralization) [9]: negative
survival rate ([10]; EB 50 μM): 100%
survival rate ([10]; EB 200 μM): 100%
IFN-γ levels (IFN-γ secreting splenocytes) [11]: increases
total IgG, IgG1, and IgG2 levels versus suboptimal dose of VN/1203 alone [12]: the same
virus specific IgG titers compared to inactivated virus alone or alum adjuvanated vaccine [13]: increased
influenza-specific neutralizing antibody titers [14]: negative

RRKKLPAVLLALLAP [SEQ ID NO: 4 peptide, derivative of EB retaining RRKK tag with 5 amino acid residues removed from the N-terminus]
weight loss ([6]; peptide 200 μM): around 20%
score for clinical signs of infection (0-3) ([6]; peptide 200 μM, with boost): 2
